For five molecules, AC50 results are on record in ChEMBL document CHEMBL5291721, “A preclinical secondary pharmacology resource illuminates target-adverse drug reaction associations of marketed drugs” (Nat Commun, 2023).

For test [1], the target named is T1, Glucocorticoid receptor (Homo sapiens, UniProt P04150).
T1 sequence (P04150 whole entry): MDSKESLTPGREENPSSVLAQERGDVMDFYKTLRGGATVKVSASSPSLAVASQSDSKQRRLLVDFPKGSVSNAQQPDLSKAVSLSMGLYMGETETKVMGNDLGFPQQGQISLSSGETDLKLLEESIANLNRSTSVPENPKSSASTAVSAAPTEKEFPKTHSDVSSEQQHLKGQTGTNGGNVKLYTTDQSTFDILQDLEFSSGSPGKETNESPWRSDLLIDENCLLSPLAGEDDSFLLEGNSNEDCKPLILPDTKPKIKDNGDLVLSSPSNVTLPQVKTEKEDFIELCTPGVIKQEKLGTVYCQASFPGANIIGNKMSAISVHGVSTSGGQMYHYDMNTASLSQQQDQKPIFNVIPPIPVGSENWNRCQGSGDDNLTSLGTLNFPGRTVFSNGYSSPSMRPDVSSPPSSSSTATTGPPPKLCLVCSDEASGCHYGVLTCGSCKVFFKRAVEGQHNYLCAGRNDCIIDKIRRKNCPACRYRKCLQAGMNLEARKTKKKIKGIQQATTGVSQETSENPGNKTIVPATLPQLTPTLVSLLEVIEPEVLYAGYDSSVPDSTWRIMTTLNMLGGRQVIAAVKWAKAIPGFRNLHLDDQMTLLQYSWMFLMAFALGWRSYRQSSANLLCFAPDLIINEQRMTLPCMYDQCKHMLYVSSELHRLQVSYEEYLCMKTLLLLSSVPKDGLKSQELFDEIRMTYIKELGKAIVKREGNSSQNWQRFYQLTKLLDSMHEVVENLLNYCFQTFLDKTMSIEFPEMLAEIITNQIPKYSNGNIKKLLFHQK
The format is functional.

Test [2] concerns the target T2, Gamma-aminobutyric acid receptor subunit alpha-1/alpha-2/beta-2/gamma-2 (Homo sapiens, UniProt P14867+P18507+P47869+P47870). The format is functional, cell-based.
Test [3] has as its target T1, Glucocorticoid receptor. It counts as functional. The source holds these as a separate data set.
For test [4], the target named is T3, Estrogen receptor (Homo sapiens, UniProt P03372).
T3 sequence (P03372 whole entry): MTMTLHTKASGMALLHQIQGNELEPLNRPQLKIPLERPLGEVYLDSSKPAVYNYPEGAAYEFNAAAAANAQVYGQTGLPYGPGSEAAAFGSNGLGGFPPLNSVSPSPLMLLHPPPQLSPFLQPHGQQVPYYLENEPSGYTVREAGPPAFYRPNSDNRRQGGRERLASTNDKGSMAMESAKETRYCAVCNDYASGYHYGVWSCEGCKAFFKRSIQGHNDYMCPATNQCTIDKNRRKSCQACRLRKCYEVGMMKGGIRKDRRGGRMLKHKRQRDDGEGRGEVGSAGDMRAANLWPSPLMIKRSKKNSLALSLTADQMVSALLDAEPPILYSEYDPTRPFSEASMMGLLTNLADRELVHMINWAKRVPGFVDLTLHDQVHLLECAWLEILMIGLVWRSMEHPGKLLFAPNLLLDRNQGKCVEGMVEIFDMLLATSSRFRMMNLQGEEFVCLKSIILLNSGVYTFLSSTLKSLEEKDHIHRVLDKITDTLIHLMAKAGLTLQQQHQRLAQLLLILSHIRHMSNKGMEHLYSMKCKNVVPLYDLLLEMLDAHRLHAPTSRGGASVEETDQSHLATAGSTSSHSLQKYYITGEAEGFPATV
It counts as functional.

The target of test [5] is Epidermal growth factor receptor (Homo sapiens, UniProt P00533). The format is functional.
Test [6] has as its target Sodium channel protein type 5 subunit alpha (Homo sapiens, UniProt Q14524). It counts as functional, cell-based.
Test [7] concerns the target T4, Peroxisome proliferator-activated receptor gamma (Homo sapiens, UniProt P37231).
T4 sequence (P37231 whole entry): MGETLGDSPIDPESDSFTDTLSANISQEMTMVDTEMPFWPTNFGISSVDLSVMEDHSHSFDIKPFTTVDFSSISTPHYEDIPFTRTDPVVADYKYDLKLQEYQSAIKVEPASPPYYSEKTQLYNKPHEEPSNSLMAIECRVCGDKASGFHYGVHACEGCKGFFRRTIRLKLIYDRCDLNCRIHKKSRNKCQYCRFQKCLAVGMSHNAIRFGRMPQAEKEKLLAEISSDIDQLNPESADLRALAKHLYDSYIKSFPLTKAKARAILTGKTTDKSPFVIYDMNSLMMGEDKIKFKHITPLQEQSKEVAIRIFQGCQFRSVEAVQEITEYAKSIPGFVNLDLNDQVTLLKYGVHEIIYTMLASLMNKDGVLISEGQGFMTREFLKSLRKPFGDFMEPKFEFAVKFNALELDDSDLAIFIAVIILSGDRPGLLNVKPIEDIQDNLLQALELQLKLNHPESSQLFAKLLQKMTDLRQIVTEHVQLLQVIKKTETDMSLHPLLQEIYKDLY
It counts as functional.

The target in test [8] is T2, Gamma-aminobutyric acid receptor subunit alpha-1/alpha-2/beta-2/gamma-2. The format is functional, cell-based. This is another data set of the same source.
In test [9] the target is T3, Estrogen receptor. The format is functional. This is another data set of the same source.
The target in test [10] is T4, Peroxisome proliferator-activated receptor gamma. It counts as functional. The source holds these as a separate data set.
Test [11] deals with Receptor tyrosine-protein kinase erbB-2 (Homo sapiens, UniProt P04626). The format is functional.
For test [12], the target named is Gamma-aminobutyric acid receptor subunit alpha-1 (Rattus norvegicus, UniProt P62813).
Test [13] addresses T2, Gamma-aminobutyric acid receptor subunit alpha-1/alpha-2/beta-2/gamma-2. It counts as protein-complex assay.

What is called AC50 is the concentration at which the activity in the assay is half-maximal.

Where only a bound is given, the exact number is not on record here.
Further: assay procedure not described here.

T2 sequence (P14867 whole entry): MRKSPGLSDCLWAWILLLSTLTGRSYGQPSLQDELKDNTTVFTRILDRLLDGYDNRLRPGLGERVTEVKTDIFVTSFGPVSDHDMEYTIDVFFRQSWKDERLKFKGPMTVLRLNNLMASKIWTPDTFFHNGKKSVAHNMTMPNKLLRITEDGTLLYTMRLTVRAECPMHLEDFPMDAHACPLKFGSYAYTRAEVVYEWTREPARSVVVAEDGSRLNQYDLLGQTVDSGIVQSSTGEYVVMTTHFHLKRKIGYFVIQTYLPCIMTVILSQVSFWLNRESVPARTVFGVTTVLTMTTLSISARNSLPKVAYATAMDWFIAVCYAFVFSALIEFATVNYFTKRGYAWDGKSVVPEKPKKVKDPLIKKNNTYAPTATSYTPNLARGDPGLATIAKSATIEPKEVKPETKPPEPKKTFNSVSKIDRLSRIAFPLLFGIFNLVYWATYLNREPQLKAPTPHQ
T2 sequence (P47870 whole entry): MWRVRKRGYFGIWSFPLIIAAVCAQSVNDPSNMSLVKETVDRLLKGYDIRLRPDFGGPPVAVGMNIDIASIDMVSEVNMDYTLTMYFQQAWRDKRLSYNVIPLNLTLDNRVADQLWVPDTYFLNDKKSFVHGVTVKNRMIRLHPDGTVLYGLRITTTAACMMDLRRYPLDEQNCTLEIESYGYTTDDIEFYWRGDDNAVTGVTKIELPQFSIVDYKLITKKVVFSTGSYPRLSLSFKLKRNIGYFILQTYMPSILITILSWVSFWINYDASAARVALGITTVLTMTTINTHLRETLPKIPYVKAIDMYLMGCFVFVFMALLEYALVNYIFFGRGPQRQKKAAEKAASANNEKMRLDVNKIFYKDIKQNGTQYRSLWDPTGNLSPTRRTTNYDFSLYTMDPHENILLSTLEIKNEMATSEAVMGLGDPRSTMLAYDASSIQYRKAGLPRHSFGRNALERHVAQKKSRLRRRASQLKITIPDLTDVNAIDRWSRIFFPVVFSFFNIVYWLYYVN
T2 sequence (P18507 whole entry): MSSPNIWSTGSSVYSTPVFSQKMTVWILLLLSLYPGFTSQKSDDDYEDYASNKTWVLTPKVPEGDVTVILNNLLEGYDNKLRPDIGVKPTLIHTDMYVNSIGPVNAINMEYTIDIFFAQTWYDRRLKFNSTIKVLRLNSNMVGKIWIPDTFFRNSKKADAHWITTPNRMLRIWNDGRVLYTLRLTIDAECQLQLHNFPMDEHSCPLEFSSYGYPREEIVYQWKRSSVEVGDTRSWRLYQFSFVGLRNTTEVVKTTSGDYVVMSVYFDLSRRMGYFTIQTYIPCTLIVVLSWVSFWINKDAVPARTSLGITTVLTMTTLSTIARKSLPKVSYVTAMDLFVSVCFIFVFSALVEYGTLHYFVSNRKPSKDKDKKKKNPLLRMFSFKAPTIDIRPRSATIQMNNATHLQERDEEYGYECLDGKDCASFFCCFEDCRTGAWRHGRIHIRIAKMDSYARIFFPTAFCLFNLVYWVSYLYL
T2 sequence (P47869 whole entry): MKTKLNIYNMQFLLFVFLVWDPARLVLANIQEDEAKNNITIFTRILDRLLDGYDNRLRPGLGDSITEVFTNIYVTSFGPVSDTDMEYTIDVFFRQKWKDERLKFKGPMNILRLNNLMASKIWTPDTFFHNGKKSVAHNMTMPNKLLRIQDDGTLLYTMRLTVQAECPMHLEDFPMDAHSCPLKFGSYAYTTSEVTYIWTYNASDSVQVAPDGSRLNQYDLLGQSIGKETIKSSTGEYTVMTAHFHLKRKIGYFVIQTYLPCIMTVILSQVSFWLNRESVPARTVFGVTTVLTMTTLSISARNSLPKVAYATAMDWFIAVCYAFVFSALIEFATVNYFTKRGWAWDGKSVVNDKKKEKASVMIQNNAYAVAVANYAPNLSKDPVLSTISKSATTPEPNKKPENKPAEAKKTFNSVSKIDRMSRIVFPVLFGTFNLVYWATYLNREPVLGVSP
Receptor tyrosine-protein kinase erbB-2, sequence (P04626 whole entry): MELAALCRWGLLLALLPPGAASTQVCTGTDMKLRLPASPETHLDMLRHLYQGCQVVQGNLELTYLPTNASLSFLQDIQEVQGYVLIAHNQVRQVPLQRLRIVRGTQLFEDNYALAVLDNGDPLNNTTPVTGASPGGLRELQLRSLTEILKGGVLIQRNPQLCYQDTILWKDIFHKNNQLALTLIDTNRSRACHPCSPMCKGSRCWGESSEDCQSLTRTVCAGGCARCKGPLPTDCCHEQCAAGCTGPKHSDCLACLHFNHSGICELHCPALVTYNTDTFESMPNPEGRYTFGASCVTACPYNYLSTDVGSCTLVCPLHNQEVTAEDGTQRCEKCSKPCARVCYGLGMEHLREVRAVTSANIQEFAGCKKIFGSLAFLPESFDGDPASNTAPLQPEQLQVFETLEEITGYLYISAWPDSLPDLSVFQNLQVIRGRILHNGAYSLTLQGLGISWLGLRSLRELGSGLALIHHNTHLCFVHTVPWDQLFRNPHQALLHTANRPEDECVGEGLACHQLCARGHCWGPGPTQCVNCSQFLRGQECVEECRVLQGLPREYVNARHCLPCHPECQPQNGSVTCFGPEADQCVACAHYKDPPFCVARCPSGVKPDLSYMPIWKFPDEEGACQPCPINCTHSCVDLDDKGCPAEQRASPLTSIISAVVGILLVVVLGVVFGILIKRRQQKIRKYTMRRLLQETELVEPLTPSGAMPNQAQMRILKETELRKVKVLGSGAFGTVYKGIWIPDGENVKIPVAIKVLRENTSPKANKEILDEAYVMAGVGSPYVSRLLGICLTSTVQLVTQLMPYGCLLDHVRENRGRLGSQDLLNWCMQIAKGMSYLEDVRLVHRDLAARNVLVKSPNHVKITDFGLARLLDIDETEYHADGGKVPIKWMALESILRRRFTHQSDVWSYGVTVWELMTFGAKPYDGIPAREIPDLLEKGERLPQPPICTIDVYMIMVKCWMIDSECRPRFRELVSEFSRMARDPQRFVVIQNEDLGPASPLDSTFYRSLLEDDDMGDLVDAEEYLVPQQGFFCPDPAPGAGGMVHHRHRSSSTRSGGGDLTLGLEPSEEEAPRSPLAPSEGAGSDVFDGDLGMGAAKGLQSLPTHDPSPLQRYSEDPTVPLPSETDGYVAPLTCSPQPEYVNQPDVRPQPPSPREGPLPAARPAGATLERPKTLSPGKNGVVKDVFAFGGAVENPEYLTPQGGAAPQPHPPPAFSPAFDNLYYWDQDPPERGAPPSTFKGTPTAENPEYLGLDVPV
Epidermal growth factor receptor, sequence (P00533 whole entry): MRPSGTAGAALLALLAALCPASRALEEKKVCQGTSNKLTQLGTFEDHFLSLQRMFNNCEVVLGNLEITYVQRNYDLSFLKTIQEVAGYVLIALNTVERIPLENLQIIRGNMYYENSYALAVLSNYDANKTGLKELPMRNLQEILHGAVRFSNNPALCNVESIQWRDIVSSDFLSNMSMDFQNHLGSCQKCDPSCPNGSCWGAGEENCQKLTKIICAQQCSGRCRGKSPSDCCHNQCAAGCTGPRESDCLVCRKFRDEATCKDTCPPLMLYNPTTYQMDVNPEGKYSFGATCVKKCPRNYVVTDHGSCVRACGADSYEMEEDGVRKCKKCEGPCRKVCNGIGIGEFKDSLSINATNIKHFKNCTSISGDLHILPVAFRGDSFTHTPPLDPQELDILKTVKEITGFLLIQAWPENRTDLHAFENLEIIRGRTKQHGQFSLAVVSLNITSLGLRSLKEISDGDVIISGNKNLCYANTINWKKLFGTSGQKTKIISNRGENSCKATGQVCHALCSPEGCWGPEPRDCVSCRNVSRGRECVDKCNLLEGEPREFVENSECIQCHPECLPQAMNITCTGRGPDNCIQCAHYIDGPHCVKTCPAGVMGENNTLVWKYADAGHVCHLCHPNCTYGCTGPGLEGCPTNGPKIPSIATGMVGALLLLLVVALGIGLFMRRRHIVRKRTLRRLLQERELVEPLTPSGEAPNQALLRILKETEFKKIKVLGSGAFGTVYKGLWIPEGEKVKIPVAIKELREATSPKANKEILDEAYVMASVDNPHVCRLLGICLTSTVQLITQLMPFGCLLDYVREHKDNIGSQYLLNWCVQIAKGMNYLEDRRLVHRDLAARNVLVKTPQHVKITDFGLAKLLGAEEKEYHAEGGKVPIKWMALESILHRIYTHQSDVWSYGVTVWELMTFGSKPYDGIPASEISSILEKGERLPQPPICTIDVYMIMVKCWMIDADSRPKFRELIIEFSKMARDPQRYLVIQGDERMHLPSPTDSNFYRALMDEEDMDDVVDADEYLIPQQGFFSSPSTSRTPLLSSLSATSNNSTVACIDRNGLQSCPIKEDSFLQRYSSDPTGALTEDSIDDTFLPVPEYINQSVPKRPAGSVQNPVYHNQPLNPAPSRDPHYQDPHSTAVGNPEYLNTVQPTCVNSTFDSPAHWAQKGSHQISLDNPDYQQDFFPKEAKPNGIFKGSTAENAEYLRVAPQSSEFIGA
Gamma-aminobutyric acid receptor subunit alpha-1, sequence (P62813 whole entry): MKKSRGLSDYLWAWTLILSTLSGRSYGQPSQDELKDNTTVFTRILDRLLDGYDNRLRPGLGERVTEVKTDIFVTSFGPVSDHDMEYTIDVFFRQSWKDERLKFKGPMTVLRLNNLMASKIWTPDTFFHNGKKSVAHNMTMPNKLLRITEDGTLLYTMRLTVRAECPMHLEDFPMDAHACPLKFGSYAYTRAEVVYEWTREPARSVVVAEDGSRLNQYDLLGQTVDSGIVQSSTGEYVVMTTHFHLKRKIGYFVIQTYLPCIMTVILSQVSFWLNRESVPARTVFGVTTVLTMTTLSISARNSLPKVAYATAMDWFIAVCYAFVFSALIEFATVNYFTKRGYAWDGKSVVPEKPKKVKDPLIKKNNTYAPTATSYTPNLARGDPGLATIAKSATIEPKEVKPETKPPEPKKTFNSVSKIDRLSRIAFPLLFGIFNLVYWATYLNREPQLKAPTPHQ

Turning to `CO[C@@H]1[C@@H](OC(N)=O)[C@@H](O)[C@H](Oc2ccc3c(O)c(NC(=O)c4ccc(O)c(CC=C(C)C)c4)c(=O)oc3c2C)OC1(C)C` [NOVOBIOCIN], the AC50 was over 30 µM on Glucocorticoid receptor [1]; over 30 µM in [2]; over 30 µM on Glucocorticoid receptor [3]; over 30 µM at Estrogen receptor [4]; over 30 µM in test [5]; over 50 µM in test [6]. Further, the AC50 (in test [7]; in test [8]; at Estrogen receptor [9]; in [10]; in test [11]) was over 30 µM each time.
Consider `CN1CC2c3ccccc3Oc3ccc(Cl)cc3C2C1` (configuration not stated) [ASENAPINE], for which the AC50 at Glucocorticoid receptor [1] is over 30 µM; in test [2], 6.5 µM; on Glucocorticoid receptor [3], over 30 µM; at Estrogen receptor [4], over 30 µM; in test [5] it was over 30 µM; in test [6], 2 µM. In addition, the AC50 (in [7]; in test [8]; on Estrogen receptor [9]; in test [10]; in [11]) was over 30 µM throughout.
`Cn1cnc2c(F)c(Nc3ccc(Br)cc3F)c(C(=O)NOCCO)cc21` [BINIMETINIB]: the AC50 (on Glucocorticoid receptor [1]; in [2]; on Glucocorticoid receptor [3]; at Estrogen receptor [4]; in [5]; in [6]) was over 30 µM each time. Also, the AC50 (in [7]; in [8]; on Estrogen receptor [9]; in [10]; in test [11]) was over 30 µM throughout.
For `C[C@H](Nc1ncnc2[nH]cnc12)c1cc2cccc(Cl)c2c(=O)n1-c1ccccc1` [DUVELISIB], the AC50 (at Glucocorticoid receptor [1]; in test [2]; on Glucocorticoid receptor [3]; on Estrogen receptor [4]; in test [5]; in test [12]) was over 30 µM throughout. Also, the AC50 in test [6] was over 50 µM; in test [7], over 30 µM; in test [8], over 30 µM; at Estrogen receptor [9], over 30 µM; in test [10], over 30 µM; in [11], over 30 µM.
As to `O=C1[C@@H]2[C@H]3CC[C@H](C3)[C@@H]2C(=O)N1C[C@@H]1CCCC[C@H]1CN1CCN(c2nsc3ccccc23)CC1` [LURASIDONE], the AC50 is over 10 µM on Glucocorticoid receptor [1]; over 30 µM in test [2]; over 10 µM on Glucocorticoid receptor [3]; over 30 µM on Estrogen receptor [4]; over 30 µM in [5]; 41 µM in [6]. Besides, the AC50 (in test [13]; in test [7]; in test [8]; at Estrogen receptor [9]; in [10]; in [11]) was over 30 µM each time.
